Experimental data as given in patent publication US20250215029A1 (Recludix Pharma, Inc., priority 2022, published 2025).
Where two headings read alike, the source gives them in different places.

Assays:
pY705-STAT3 in PBMC = molecular target: T1, pY705-STAT3 in PBMC (Homo sapiens, UniProt P40763); experiment: MSD-pSTAT-PBMC Assay (pSTAT3, IL-6 stimulated); assay type: cell-based; settings: PBMC, compound 3 hrs, then 10 ng/mL IL-6 for 10 min
T1 construct: Cryopreserved Peripheral Blood Mononuclear Cells (PBMC) are from AllCells; host or cells: cryopreserved PBMC
T1 sequence (P40763 whole entry): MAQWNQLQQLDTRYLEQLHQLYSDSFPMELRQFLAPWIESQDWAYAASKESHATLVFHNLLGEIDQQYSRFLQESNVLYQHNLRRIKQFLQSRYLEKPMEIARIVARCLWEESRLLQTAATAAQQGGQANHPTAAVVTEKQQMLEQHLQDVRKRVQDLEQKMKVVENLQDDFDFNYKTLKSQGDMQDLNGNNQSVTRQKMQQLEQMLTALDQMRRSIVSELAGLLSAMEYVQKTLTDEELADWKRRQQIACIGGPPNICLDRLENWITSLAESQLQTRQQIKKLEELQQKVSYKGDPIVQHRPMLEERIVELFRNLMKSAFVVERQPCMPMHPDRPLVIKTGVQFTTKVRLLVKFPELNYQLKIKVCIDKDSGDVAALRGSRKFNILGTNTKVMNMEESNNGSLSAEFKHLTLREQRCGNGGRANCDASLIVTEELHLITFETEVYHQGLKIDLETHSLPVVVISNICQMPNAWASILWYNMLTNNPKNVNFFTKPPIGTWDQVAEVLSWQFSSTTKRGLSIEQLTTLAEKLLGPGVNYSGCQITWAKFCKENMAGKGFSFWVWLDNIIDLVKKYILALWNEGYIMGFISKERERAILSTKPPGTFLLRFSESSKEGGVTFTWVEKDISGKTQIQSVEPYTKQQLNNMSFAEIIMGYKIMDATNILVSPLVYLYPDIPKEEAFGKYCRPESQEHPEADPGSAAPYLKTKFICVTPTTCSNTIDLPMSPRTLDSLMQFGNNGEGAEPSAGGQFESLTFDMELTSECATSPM
In short: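 pY705-STAT3 was detected electrochemiluminescently on total-STAT3 capture plates, using lysates of human PBMCs given compound for 3 h and then IL-6 (10 ng/mL, 10 min). Values were background-subtracted against unstimulated wells and set relative to DMSO. IC50 was fitted with variable slope.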

pY641-STAT6 in PBMC = molecular target: T2, pY641-STAT6 in PBMC (Homo sapiens, UniProt P42226); experiment: MSD-pSTAT-PBMC Assay (pSTAT6, IL-4 stimulated); assay type: cell-based; settings: compound 3 hrs, then 1 ng/mL IL-4 for 10 min
T2 construct: Cryopreserved Peripheral Blood Mononuclear Cells (PBMC) are from AllCells; host or cells: cryopreserved PBMC
T2 sequence (P42226 1-847): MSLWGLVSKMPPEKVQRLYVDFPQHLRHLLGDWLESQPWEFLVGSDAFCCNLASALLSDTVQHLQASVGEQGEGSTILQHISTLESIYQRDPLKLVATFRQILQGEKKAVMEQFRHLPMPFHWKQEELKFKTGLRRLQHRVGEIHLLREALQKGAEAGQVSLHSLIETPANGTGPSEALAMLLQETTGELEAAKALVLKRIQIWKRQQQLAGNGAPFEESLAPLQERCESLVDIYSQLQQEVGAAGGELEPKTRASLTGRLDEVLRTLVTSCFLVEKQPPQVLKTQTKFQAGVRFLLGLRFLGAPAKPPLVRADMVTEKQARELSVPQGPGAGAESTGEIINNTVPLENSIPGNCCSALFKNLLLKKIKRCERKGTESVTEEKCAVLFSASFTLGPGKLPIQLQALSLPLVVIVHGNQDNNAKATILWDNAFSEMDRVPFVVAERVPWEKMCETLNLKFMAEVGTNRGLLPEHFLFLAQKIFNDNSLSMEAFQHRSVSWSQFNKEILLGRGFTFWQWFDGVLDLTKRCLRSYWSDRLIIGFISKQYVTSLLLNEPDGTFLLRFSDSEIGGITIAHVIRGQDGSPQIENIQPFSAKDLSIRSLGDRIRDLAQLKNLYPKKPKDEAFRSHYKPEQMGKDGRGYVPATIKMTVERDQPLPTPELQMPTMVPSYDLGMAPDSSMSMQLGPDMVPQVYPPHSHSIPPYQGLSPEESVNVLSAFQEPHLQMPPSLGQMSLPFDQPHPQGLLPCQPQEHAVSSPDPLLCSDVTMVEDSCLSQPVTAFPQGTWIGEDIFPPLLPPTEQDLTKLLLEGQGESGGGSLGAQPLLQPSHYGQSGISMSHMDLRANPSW
In short: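 Thawed human PBMC rested overnight in IMDM/10% FBS, then got compound for 3 hrs before a 10 min cytokine pulse: 1 ng/mL IL-4 for pSTAT6, 10 ng/mL IL-6 for pSTAT3. Lysates went to MSD sandwich capture on total STAT6 or STAT3 with phospho-specific detection. IC50 came from background-subtracted, DMSO-normalized signal.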

[1] = PBMC, Table 1114, read-out: pSTAT6

SMILES | IC50 (pY705-STAT3 in PBMC; Table 1114, read-out: pSTAT3) [nM] | IC50 (pY641-STAT6 in PBMC; pSTAT6, PBMC, Table 1114) [nM] | IC50 (pY641-STAT6 in PBMC; [1]) [nM] | IC50 (pY705-STAT3 in PBMC; Table 115, read-out: STAT3) [nM] | IC50 (pY641-STAT6 in PBMC; STAT6, PBMC, Table 115) [nM]
CCCC(=O)SCCOP(=O)(Oc1cccnc1)C(F)(F)c1ccc2sc(C(=O)N[C@H]3CCCC[C@H]4CC[C@@H](C(=O)N5C[C@@H](C#N)[C@H](c6ccccc6)C5)N4C3=O)cc2c1 (single isomer, unassigned) [Compound 139, S-(2-((((2-(((3S,6S,10aS)-3-((3S,4R or 3R,4S)-3-cyano-4-phenylpyrrolidine-1-carbonyl)-5-oxodecahydro-pyrrolo[1,2-a]azocin-6-yl)carbamoyl)benzo[b]thiophen-5-yl)difluoromethyl) (pyridin-3-yloxy)phosphoryl)oxy)ethyl) butanethioate] | 100 to 1000 | < 100 |  |  | 
CC(C)OC(=O)[C@H](C)NP(=O)(Cc1ccc2sc(C(=O)N[C@H]3CCCC[C@H]4CC[C@@H](C(=O)N5C[C@H](c6cc[nH]c(=O)c6)[C@@H](C#N)C5)N4C3=O)cc2c1)Oc1ccccc1 (single isomer, unassigned) [Compound 197, isopropyl (((2-(((3S,6S,10aS)-3-((3R,4S or 3S,4R)-3-cyano-4-(2-oxo-1,2-dihydro-pyridin-4-yl)pyrrolidine-1-carbonyl)-5-oxodecahydro-pyrrolo[1,2-a]azocin-6-yl)carbamoyl)benzo[b]thiophen-5-yl)methyl) (phenoxy)phosphoryl)-L-alaninate] | > 3000 | > 3000 |  |  | 
CC(C)OC(=O)OCOP(=O)(OCOC(=O)OC(C)C)[C@H](F)c1ccc2sc(C(=O)N[C@H]3CCCC[C@H]4CC[C@@H](C(=O)N5C[C@H](c6cc[nH]c(=O)c6)[C@@H](C#N)C5)N4C3=O)cc2c1 (single isomer, unassigned) [Compound 164] | 100 to 1000 |  | 100 to 1000 |  | 
CCCOC(=O)[C@H](C)NP(=O)(Oc1ccccc1)[C@H](F)c1ccc2sc(C(=O)N[C@H]3CCCC[C@H]4CC[C@@H](C(=O)N5C[C@H](c6ccccc6)[C@@H](C#N)C56CC6)N4C3=O)cc2c1 (stereo partly drawn) [Compound 485, propyl (((S)-(2-(((3S,6S,10aS)-3-((6S,7R)-7-cyano-6-phenyl-4-azaspiro[2.4]heptane-4-carbonyl)-5-oxodecahydropyrrolo [1,2-a]azocin-6-yl)carbamoyl)benzo [b]thiophen-5-yl)fluoromethyl) (phenoxy)phosphoryl)-L-alaninate] |  |  |  | > 3000 | < 100
CCCC(=O)SCCOP(=O)(Oc1cccc(C#N)c1)C(F)(F)c1ccc2sc(C(=O)N[C@H]3CCCC[C@H]4CC[C@@H](C(=O)N5C[C@@H](C#N)[C@H](c6ccccc6)C5)N4C3=O)cc2c1 (single isomer, unassigned) [Compound 138, S-(2-((((2-(((3S,6S,10aS)-3-((3S,4R or 3R,4S)-3-cyano-4-phenylpyrrolidine-1-carbonyl)-5-oxodecahydro-pyrrolo[1,2-a]azocin-6-yl)carbamoyl)benzo[b]thiophen-5-yl)difluoromethyl) (3-cyanophenoxy)phosphoryl)oxy)ethyl)butane-thioate] | > 3000 | 100 to 1000 |  |  | 
CC(C)COC(=O)[C@H](C)NP(=O)(Cc1ccc2ccc(C(=O)N[C@H]3CCCC[C@H]4CC[C@@H](C(=O)N5CC(c6ccccc6)CC56CC6)N4C3=O)cc2c1)Oc1ccccc1 (stereo partly drawn) [Compound 410, isobutyl (((7-(((3S,6S,10aS)-5-oxo-3-(6-phenyl-4-azaspiro[2.4]heptane-4-carbonyl)decahydropyrrolo[1,2-a]azocin-6-yl)carbamoyl)naphthalen-2-yl)methyl)(phenoxy)phosphoryl)-L-alaninate] |  |  |  | > 3000 | > 3000
CC(C)CC(=O)SCCOP(=O)(OCCSC(=O)CC(C)C)C(F)(F)c1ccc2ccc(C(=O)N[C@H]3CCCC[C@H]4CC[C@@H](C(=O)N5C[C@H](c6cc[nH]c(=O)c6)[C@@H](C#N)C5)N4C3=O)cc2c1 (single isomer, unassigned) [Compound 155, S,S′-(((((7-(((3S,6S,10aS)-3-((3R,4S or 3S,4R)-3-cyano-4-(2-oxo-1,2-dihydropyridin-4-yl)pyrrolidine-1-carbonyl)-5-oxodecahydro-pyrrolo[1,2-a]azocin-6-yl)carbamoyl)naphthalen-2-yl)difluoromethyl)phosphoryl)bis(oxy))bis(ethane-2,1-diyl)) bis(3-methylbutane thioate)] | 100 to 1000 |  | < 100 |  | 
CCCOC(=O)[C@H](C)NP(=O)(Cc1ccc2sc(C(=O)N[C@H]3CC4(CC[C@H]5CC[C@@H](C(=O)N6CC(c7cccnc7)C6)N5C3=O)CC4)cc2c1)Oc1ccccc1 (stereo partly drawn) [Compound 302, propyl (((2-(((3′S,6′S,10a′S)-5′-oxo-3′-(3-(pyridin-3-yl)azetidine-1-carbonyl)octahydro-5′H-spiro[cyclopropane-1,8′-pyrrolo[1,2-a]azocin]-6′-yl)carbamoyl)benzo [b]thiophen-5-yl)methyl)(phenoxy)phosphoryl)-L-alaninate] |  |  |  | < 100 | 1000 to 3000
CC(C)CC(=O)SCCOP(=O)(OCCSC(=O)CC(C)C)C(F)(F)c1ccc2sc(C(=O)N[C@H]3CCCC(C)[C@H]4CC[C@@H](C(=O)N5CC(c6cccnc6)C5)N4C3=O)cc2c1 (stereo partly drawn) [Compound 161, S,S′-((((difluoro(2-(((3S,6S,10aR)-10-methyl-5-oxo-3-(3-(pyridin-3-yl)azetidine-1-carbonyl)decahydropyrrolo [1,2-a]azocin-6-yl)carbamoyl)benzo[b]thiophen-5-yl)methyl)phosphoryl)bis(oxy))bis(ethane-2,1-diyl)) bis(3-methylbutane thioate)] | < 100 |  | > 3000 |  | 
CCCCOC(=O)[C@H](C)NP(=O)(Cc1ccc2ccc(C(=O)N[C@H]3CCCC[C@H]4CC[C@@H](C(=O)N5CC(c6ccccc6)CC56CC6)N4C3=O)cc2c1)Oc1ccccc1 (stereo partly drawn) [Compound 405, butyl (((7-(((3S,6S,10aS)-5-oxo-3-(6-phenyl-4-azaspiro[2.4]heptane-4-carbonyl)decahydropyrrolo[1,2-a]azocin-6-yl)carbamoyl)naphthalen-2-yl)methyl)(phenoxy)phosphoryl)-L-alaninate] |  |  |  | > 3000 | 1000 to 3000
CCCOC(=O)[C@H](C)NP(=O)(Oc1ccccc1)[C@@H](F)c1ccc2sc(C(=O)N[C@H]3CCCC[C@H]4CC[C@@H](C(=O)N5C[C@H](c6cccc(F)c6)C(C#N)C56CC6)N4C3=O)cc2c1 (relative stereo) [Compound 337, propyl (((R)-(2-(((3S,6S,10aS)-3-((rel-trans)-7-cyano-6-(3-fluorophenyl)-4-azaspiro[2.4]heptane-4-carbonyl)-5-oxodecahydropyrrolo [1,2-a]azocin-6-yl)carbamoyl)benzo [b]thiophen-5-yl)fluoromethyl) (phenoxy)phosphoryl)-L-alaninate] |  |  |  | > 3000 | < 100
CC(C)OC(=O)[C@H](C)NP(=O)(Oc1ccccc1)C(F)c1ccc2sc(C(=O)N[C@H]3CCC[C@H]4CC[C@@H](C(=O)N5CC(c6cccnc6)C5)N4C3=O)cc2c1 (stereo partly drawn) [Compound 196, isopropyl ((fluoro(2-(((3S,6S,9aS)-5-oxo-3-(3-(pyridin-3-yl)azetidine-1-carbonyl)octahydro-1H-pyrrolo[1,2-a]azepin-6-yl)carbamoyl)benzo[b]thiophen-5-yl)methyl) (phenoxy)phosphoryl)-L-alaninate] | 100 to 1000 | > 3000 |  |  | 
